This passage reports IC50 results from ChEMBL document CHEMBL5728364, “Compounds as autotaxin inhibitors and pharmaceutical compositions comprising the same” (2021).

pIC50: −log10 of the molar value.

What is called pIC50 is the IC50 on a negative log10 scale, so that one unit is a factor of ten. High values mean a low IC50, low ones a high IC50.

For this test, the target named is Autotaxin (Homo sapiens, UniProt Q13822). The test is described as follows: Inhibitory Activity Assay: Two-fold dilution of each test compound solution (10 μM, 100% dimethyl sulfoxide) is carried out on 96-well V bottom plate (Costar 3363). After ten-fold dilution of each the test compound solution (100% dimethyl sulfoxide) with deionized distilled water, 10 μL of the diluted each mpound solution (10% dimethyl sulfoxide) was aliquoted to a black flat bottom 96-well plate (Costar 3915). 50 μL of 1.6× Assay solution (224 mM NaCl, 80 mM Tris-HCl (pH 8.0), 8 mM KCl, 1.6 mM CaCl2, 1.6 mM MgCl2, and 1.6 mg/mL fatty acid free BSA) was added thereto, and subsequently 20 μL of 20 nM human ENPP2 solution (buffer solution: 140 mM NaCl, 50 mM Tris-HCl (pH 8.0), 5 mM KCl, 1 mM CaCl2, 1 mM MgCl2, and 1 mg/mL fatty acid free BSA) and 20 μL of 5 μM FS-3 solution (buffer solution:deionized distilled water) were added thereto, respectively, followed by mixing.

Regarding `O=C(NCCN1CCN(c2cnc(NC3Cc4ccccc4C3)nc2)CC1)c1ccc2[nH]c(=O)oc2c1`, the pIC50 was 8.54.

Turning to `O=C(Cn1cc(-c2cnc(NCc3cccc(OC(F)(F)F)c3)nc2)nn1)N1CCc2[nH]nnc2C1`, the pIC50 was 8.54.

In the case of `NS(=O)(=O)NC1CCN(C(=O)Cc2nnc(-c3cnc(NC4Cc5ccccc5C4)nc3)o2)C1` (centres undefined), the pIC50 was 8.34.

For `O=C(Cc1nc(-c2cnc(NC3Cc4ccccc4C3)nc2)no1)N1CCc2[nH]nnc2C1`, the pIC50 is 8.60.
